In test [1] the test system is A549 cells. As to the kind of experiment: Anchorage-independent colony formation assay in soft agar. It is filed as cell-based. To be noted: Homo sapiens, A549, 456 h, 19 days, read-out: inhibition of A549 cell growth in soft agar. As for the experimental part: Noble agar (2% and 0.6%; Difco, Detroit, Mich.) was prepared in water and autoclaved. The 2% agar was melted in a microwave oven, mixed 1:1 with medium (×2 Kaighn's modification of Ham's F-12 medium with 20% FCS, 100 U/ml penicillin, and 0.1 mg/ml streptomycin) and poured onto 96-well plates (50 μl per well) to provide the 1% base agar. The 0.6% agar (5 ml) was mixed with 5 ml of medium (×2), containing 8×10^4 A549 cells, and the mixture (50 μl) was plated on top of the base agar. The cells were incubated for 19 days at 37° C. with or without the indicated concentrations of FTS (6 wells for the control and for each treatment) and colonies were stained with MTT (1 mg/ml for 4 h). The colonies were then visualized by light microscopy, imaged, and counted using the ImagePro software. Next, to determine the effect of FTS on the anchorage-independent growth of A549 cells, a soft agar assay was performed. The cells were seeded in soft agar and treated with increasing concentrations of FTS 0 μM, 50 μM and 100 μM (FIGS. 12A-12B). Control cells were treated with 0.1% Me2SO4 (DMSO). FTS inhibited A549 cell growth in soft agar by 27±5.5% and 58±21% at 50 μM and 100 μM FTS, respectively. Thus, FTS inhibited the anchorage-independent growth of A549 cells.

The test system of test [2] is RhoA-GTP. In words: RhoA-GTP pull-down assay in A549 cells. It is filed as cell-based, human. The protocol: A549 cells were incubated for 24 or 48 h with or without FTS, as described above, and then lysed with lysis buffer as described in Haklai, R., Gana-Weisz, M., Elad, G., et al., Biochemistry 37:1306-14 (1998). The apparent amounts of K-Ras-GTP in 0.5 mg protein of total cell lysates were determined by the glutathione-S-transferase (GST)-RBD (Ras-binding domain of Raf) pull-down assay, as described in (Elad-Sfadia, G., Haklai, R., Ballan, E., Gabius, H. J., Kloog, Y., J Biol Chem 277:37169-75 (2002). The apparent amounts of Rac1-GTP and of RhoA-GTP, each in 2 mg protein of total cell lysates, were determined, respectively, by pull-down assays with GST-PBD (Rac1-binding domain of PAK1)-conjugated and GST-Rhotekin BD (Rho-binding domain of Rhotekin)-conjugated beads [Benard, V., Bohl, B. P., Bokoch, G. M, J Biol Chem 274:13198-204 (1999); Fiordalisi, J. J., Keller, P. J., Cox, A. D., Cancer Res 66:3153-61 (2006). […] Levels of phospho-ERK and phospho-Akt were determined by immunoblotting [Haklai, R., Gana-Weisz, M., Elad, G., et al., supra.] using rabbit anti phospho-ERK1/2 Ab (Santa Cruz Biotechnology, Santa Cruz, Calif.) and rabbit anti phospho-Akt Ab (Cell Signaling, Beverly, Mass.). Protein bands were visualized by enhanced chemiluminescence and quantified by densitometry using ImageJ computer software (National institutes of Health, Bethesda, Md.). […]

For test [3], the system named is A549 cells. In words: Drug combination experiments, live cell counting. The class given is cell-based, human. Particulars: FTS alone 40 μM. The protocol:
In drug combination experiments, cells were grown for 2 days in the absence or in the presence of 40 μM FTS and were then treated for 4 h with gemcitabine (100 or 200 nM), cisplatin (50 or 100 nM), doxorubicin (50 or 100 nM), or paclitaxel (2.5 or 5 nM). Live cells were counted after a further 3 days of incubation with or without FTS. Experiments were performed twice in quadruplicate. To determine whether A549 cells were resistant to apoptosis, an experiment to examine the survival of human lung cancer A549 cells after exposure to a chemotherapeutic agent in the presence of FTS was performed. Thus, to determine whether treatment with FTS can increase the sensitivity of A549 cells to cytotoxic drugs, A549 cells were incubated for 48 h with DMSO (control) or with 40 μM FTS, then for 4 h with gemcitabine, cisplatin, doxorubicin, or paclitaxel at the indicated concentrations. The cells were then washed and incubated for a further 72 h with DMSO or with 40 μM FTS. Live cells were collected and counted. The numbers of cells in the drug-treated cultures, expressed as percentages of the numbers in the vehicle-treated control, are shown in FIGS. 13A-13D. Values are means±SD. *P<0.05, **P<0.01, compared to vehicle-treated control.

Each structure is given as a SMILES string.

The source of these data is patent publication US8232253B2, “Treatment of lung cancer” (Ramot at Tel-Aviv University Ltd., priority 2006, dated 2012).

Regarding `CC(C)=CCC/C(C)=C/CC/C(C)=C/CSc1ccccc1C(=O)O` [FTS, S-farnesylthiosalicylic acid], in test [1] (50 μM FTS), the inhibition at 50 µM was 27 ± 5.5%. In test [1] (100 μM FTS), the inhibition at 100 µM stood at 58 ± 21%. Also, the “increase in RhoA-GTP” value in test [2] amounted to 2±0.2 fold. For the same compound, the “reduction in cell numbers (mean±SD)” value turned out to be 33±9.5% in test [3] (cisplatin experiment (FIG. 13C)) and 25±6.3% in test [3] (gemcitabine experiment (FIG. 13A)).

The term inhibition denotes the drop in the measured response relative to a control, in per cent.
